Laboratory results published in ChEMBL document CHEMBL1275339, “Anti-leishmanial and anti-trypanosomal activities of 1,4-dihydropyridines: In vitro evaluation and structure-activity relationship study” (Bioorg Med Chem, 2010).

Key:
Leishmania braziliensis = test: Antileishmanial activity against promastigotes of Leishmania braziliensis MHO/BR/75/M2903 after 18 hrs by MTT assay; type: functional, organism-based; conditions: MHO/BR/75/M2903, 18 h
Leishmania amazonensis = test: Antileishmanial activity against promastigotes of Leishmania amazonensis WHO/BR/00/LT0016 after 18 hrs by MTT assay; type: functional, organism-based; conditions: WHO/BR/00/LT0016, 18 h
Leishmania chagasi [1] = test: Antileishmanial activity against amastigotes of Leishmania chagasi MHOM/BR/1972/LD after 24 hrs by MTT assay; type: functional, organism-based
LLC-MK2 = test: Cytotoxicity against rhesus monkey LLC-MK2 cells after 48 hrs by MTT assay; type: cell-based, Macaca mulatta
Leishmania major = test: Antileishmanial activity against promastigotes of Leishmania major MHOM/1L/80/Fredlin after 18 hrs by MTT assay; type: functional, organism-based
[2] = Selectivity index, ratio of IC50 for rhesus monkey LLC-MK2 cells to IC50 for amastigotes of Leishmania chagasi MHOM/BR/1972/LD; type: toxicity, cell-based; conditions: read-out: Selectivity Index
[3] = Selectivity index, ratio of IC50 for rhesus monkey LLC-MK2 cells to IC50 for trypomastigotes of Trypanosoma cruzi; type: toxicity, cell-based; conditions: read-out: Selectivity Index
Trypanosoma cruzi [4] = test: Antitrypanosomal activity against trypomastigotes of Trypanosoma cruzi infected in rhesus monkey LLC-MK2 cells after 48 hrs by MTT assay; type: functional, organism-based; conditions: LLC-MK2, 48 h
[5] = Cytotoxicity in BALB/c mouse erythrocytes assessed as hemolysis at 50 uM after 3 hrs; type: cell-based; conditions: erythrocyte
Leishmania chagasi [6] = test: Antileishmanial activity against promastigotes of Leishmania chagasi MHOM/BR/1972/LD after 18 hrs by MTT assay; type: functional, organism-based
Trypanosoma cruzi [7] = test: Antitrypanosomal activity against epimastigotes of Trypanosoma cruzi; type: functional, organism-based
[8] = Leishmania chagasi, MHOM/BR/1972/LD, 24 h

Compound	IC50 (Trypanosoma cruzi [4])	IC50 (Trypanosoma cruzi [7])	IC50 (Leishmania braziliensis)	IC50 (Leishmania amazonensis)	IC50 (Leishmania chagasi [1]; [8])	IC50 (LLC-MK2; Macaca mulatta, LLC-MK2, 48 h)	IC50 (Leishmania major)	selectivity ratio [2]	selectivity ratio [3]	Activity [5]	IC50 (Leishmania chagasi [6])	IC50 (Leishmania chagasi [1])	IC50 (LLC-MK2; llc-mk2)
CCOC(=O)C1=C(COCCN)NC(C)=C(C(=O)OC)C1c1ccccc1Cl (centres undefined) [AMLODIPINE]	8.07 µM		3.13 µM	2.93 µM	5.35 µM	70.8 µM	3.35 µM	13.2	8.77	Non-toxic	2.61 µM		
CC1=C(C(=O)OC(C)C)C(c2cccc([N+](=O)[O-])c2)C(C(=O)OC2CN(C(c3ccccc3)c3ccccc3)C2)=C(N)N1 (centres undefined) [AZELNIDIPINE]	2.9 µM		13.7 µM	20.5 µM		33.5 µM	17.1 µM		11.5	Non-toxic	33.4 µM		
O=C(Cn1ccnc1[N+](=O)[O-])NCc1ccccc1 [BENZNIDAZOLE]	172 µM					> 1370 µM				Non-toxic			
COCCOC(=O)C1=C(C)NC(C)=C(C(=O)OC/C=C/c2ccccc2)C1c1cccc([N+](=O)[O-])c1 (centres undefined) [CILNIDIPINE]	5.62 µM		15.3 µM	111 µM	28.4 µM	222 µM	21.4 µM	7.79	39.4	Non-toxic	33 µM		
COC(=O)C1=C(C)NC(C)=C(C(=O)OC(C)C)C1c1cccc2nonc12 (centres undefined) [ISRADIPINE]		20.8 µM								Non-toxic			
COC(=O)C1=C(C)NC(C)=C(C(=O)OC)C1c1ccccc1[N+](=O)[O-] [NIFEDIPINE]	102 µM		95.7 µM	118 µM	176 µM	589 µM	181 µM	4.21	5.78	Non-toxic	146 µM		
N=C(N)c1ccc(OCCCCCOc2ccc(C(=N)N)cc2)cc1 [PENTAMIDINE]			0.15 µM	0.49 µM		25.6 µM	0.47 µM			Non-toxic	1.11 µM		
MEGLUMINE ANTIMONATE										Non-toxic		82.3 µM	> 1370 µM

Second part, led by results:

IC50 (Trypanosoma cruzi [4])	IC50 (Trypanosoma cruzi [7])	Compound	IC50 (Leishmania braziliensis)	IC50 (Leishmania amazonensis)	IC50 (Leishmania chagasi [1]; [8])	IC50 (LLC-MK2; Macaca mulatta, LLC-MK2, 48 h)	IC50 (Leishmania major)	selectivity ratio [2]	selectivity ratio [3]	Activity [5]	IC50 (Leishmania chagasi [6])	IC50 (Leishmania chagasi [1])	IC50 (LLC-MK2; llc-mk2)
	33.5 µM	CCOC(=O)C1=C(C)NC(C)=C(C(=O)OCC)C1c1ccccc1/C=C/C(=O)OC(C)(C)C [LACIDIPINE]								Non-toxic			
8.43 µM		COC(=O)C1=C(C)NC(C)=C(C(=O)OC(C)(C)CN(C)CCC(c2ccccc2)c2ccccc2)C1c1cccc([N+](=O)[O-])c1 (centres undefined) [LERCANIDIPINE]	10.3 µM	16.9 µM	10.4 µM	435 µM	11.6 µM	42	51.6	Non-toxic	19.2 µM		
10.6 µM		COC(=O)C1=C(C)NC(C)=C(C(=O)OCCN(C)Cc2ccccc2)C1c1cccc([N+](=O)[O-])c1 (centres undefined) [NICARDIPINE]	19.1 µM	26.5 µM	22 µM	71.6 µM	21.8 µM	3.25	6.76	Non-toxic	35.7 µM		
32.3 µM		COCCOC(=O)C1=C(C)NC(C)=C(C(=O)OC(C)C)C1c1cccc([N+](=O)[O-])c1 (centres undefined) [NIMODIPINE]	42.8 µM	128 µM	21.6 µM	96.2 µM	31 µM	4.45	2.98	Non-toxic	82.7 µM		
26.9 µM		CCOC(=O)C1=C(C)NC(C)=C(C(=O)OC)C1c1cccc([N+](=O)[O-])c1 (centres undefined) [NITRENDIPINE]	39 µM	38.3 µM	43.8 µM	138 µM	33.3 µM	3.14	5.12	Non-toxic	64.1 µM		
